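Five concentrations, 48 hours, 96-well plates. Here, GI50 denotes the concentration required for 50% inhibition of growth. Definition used: TGI = concentration required for complete inhibition of growth.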
Experiments:
Experiment in all cases: NCI anticancer screen, dose series, 48 h
HCT-116 colon = tested on: HCT-116 colon
ACHN renal = tested on: ACHN renal
SK-OV-3 ovarian = tested on: SK-OV-3 ovarian
SF-268 CNS = tested on: SF-268 CNS
PC-3 prostate = tested on: PC-3 prostate
SR leukemia = tested on: SR leukemia
SK-MEL-5 melanoma = tested on: SK-MEL-5 melanoma
IGROV1 ovarian = tested on: IGROV1 ovarian
786-0 renal = tested on: 786-0 renal
HOP-92 NSCLC = tested on: HOP-92 NSCLC
NCI-H226 lung = tested on: NCI-H226 lung
MCF7 breast = tested on: MCF7 breast
SK-MEL-28 melanoma = tested on: SK-MEL-28 melanoma
RPMI-8226 leukemia = tested on: RPMI-8226 leukemia
A549 NSCLC = tested on: A549 NSCLC
K-562 leukemia = tested on: K-562 leukemia
UACC-257 melanoma = tested on: UACC-257 melanoma
A498 renal = tested on: A498 renal
OVCAR-4 ovarian = tested on: OVCAR-4 ovarian
CCRF-CEM leukemia = tested on: CCRF-CEM leukemia
T-47D breast = tested on: T-47D breast
SK-MEL-2 melanoma = tested on: SK-MEL-2 melanoma
OVCAR-8 ovarian = tested on: OVCAR-8 ovarian
NCI-H522 lung = tested on: NCI-H522 lung
HOP-62 NSCLC = tested on: HOP-62 NSCLC
LOX IMVI melanoma = tested on: LOX IMVI melanoma
SN12C renal = tested on: SN12C renal
M14 melanoma = tested on: M14 melanoma
BT-549 breast = tested on: BT-549 breast
SF-539 CNS = tested on: SF-539 CNS
HS 578T breast = tested on: HS 578T breast
HCT-15 colon = tested on: HCT-15 colon
UO-31 renal = tested on: UO-31 renal
HCC-2998 colon = tested on: HCC-2998 colon
DU-145 prostate = tested on: DU-145 prostate
SW-620 colon = tested on: SW-620 colon
TK-10 renal = tested on: TK-10 renal
MDA-MB-435 = tested on: MDA-MB-435
EKVX NSCLC = tested on: EKVX NSCLC
COLO 205 colon = tested on: COLO 205 colon
CAKI-1 renal = tested on: CAKI-1 renal
OVCAR-3 ovarian = tested on: OVCAR-3 ovarian
NCI/ADR-RES ovarian = tested on: NCI/ADR-RES ovarian
NCI-H460 lung = tested on: NCI-H460 lung
SNB-19 CNS = tested on: SNB-19 CNS
U251 CNS = tested on: U251 CNS
HL-60(TB) leukemia = tested on: HL-60(TB) leukemia
MOLT-4 leukemia = tested on: MOLT-4 leukemia
OVCAR-5 ovarian = tested on: OVCAR-5 ovarian
KM12 colon = tested on: KM12 colon
HT29 colon = tested on: HT29 colon
UACC-62 melanoma = tested on: UACC-62 melanoma
RXF 393 renal = tested on: RXF 393 renal
MDA-MB-231 breast = tested on: MDA-MB-231 breast
SF-295 CNS = tested on: SF-295 CNS
SNB-75 CNS = tested on: SNB-75 CNS

Q: What does the source list for COc1ccc(C2SC(C)C(=O)N2NC(=O)C(O)c2ccccc2)cc1OC (configuration not stated)?
A: GI50 (HCT-116 colon): > 100 µM; TGI (HCT-116 colon): > 100 µM; GI50 (ACHN renal): > 100 µM; TGI (ACHN renal): > 100 µM; GI50 (SK-OV-3 ovarian): > 100 µM; TGI (SK-OV-3 ovarian): > 100 µM; GI50 (SF-268 CNS): > 100 µM; TGI (SF-268 CNS): > 100 µM; GI50 (PC-3 prostate): > 100 µM; TGI (PC-3 prostate): > 100 µM; GI50 (SR leukemia): > 100 µM; TGI (SR leukemia): > 100 µM; GI50 (SK-MEL-5 melanoma): > 100 µM; TGI (SK-MEL-5 melanoma): > 100 µM; GI50 (IGROV1 ovarian): > 100 µM; TGI (IGROV1 ovarian): > 100 µM; GI50 (786-0 renal): > 100 µM; TGI (786-0 renal): > 100 µM; GI50 (HOP-92 NSCLC): > 100 µM; TGI (HOP-92 NSCLC): > 100 µM; GI50 (NCI-H226 lung): > 100 µM; TGI (NCI-H226 lung): > 100 µM; GI50 (MCF7 breast): > 100 µM; TGI (MCF7 breast): > 100 µM; GI50 (SK-MEL-28 melanoma): > 100 µM; TGI (SK-MEL-28 melanoma): > 100 µM; GI50 (RPMI-8226 leukemia): > 100 µM; TGI (RPMI-8226 leukemia): > 100 µM; GI50 (A549 NSCLC): > 100 µM; TGI (A549 NSCLC): > 100 µM; GI50 (K-562 leukemia): > 100 µM; TGI (K-562 leukemia): > 100 µM; GI50 (UACC-257 melanoma): > 100 µM; TGI (UACC-257 melanoma): > 100 µM; GI50 (A498 renal): > 100 µM; TGI (A498 renal): > 100 µM; GI50 (OVCAR-4 ovarian): > 100 µM; TGI (OVCAR-4 ovarian): > 100 µM; GI50 (CCRF-CEM leukemia): > 100 µM; TGI (CCRF-CEM leukemia): > 100 µM; GI50 (T-47D breast): > 100 µM; TGI (T-47D breast): > 100 µM; GI50 (SK-MEL-2 melanoma): > 100 µM; TGI (SK-MEL-2 melanoma): > 100 µM; GI50 (OVCAR-8 ovarian): > 100 µM; TGI (OVCAR-8 ovarian): > 100 µM; GI50 (NCI-H522 lung): > 100 µM; TGI (NCI-H522 lung): > 100 µM; GI50 (HOP-62 NSCLC): > 100 µM; TGI (HOP-62 NSCLC): > 100 µM; GI50 (LOX IMVI melanoma): > 100 µM; TGI (LOX IMVI melanoma): > 100 µM; GI50 (SN12C renal): > 100 µM; TGI (SN12C renal): > 100 µM; GI50 (M14 melanoma): > 100 µM; TGI (M14 melanoma): > 100 µM; GI50 (BT-549 breast): > 100 µM; TGI (BT-549 breast): > 100 µM; GI50 (SF-539 CNS): > 100 µM; TGI (SF-539 CNS): > 100 µM; GI50 (HS 578T breast): > 100 µM; TGI (HS 578T breast): > 100 µM; GI50 (HCT-15 colon): > 100 µM; TGI (HCT-15 colon): > 100 µM; GI50 (UO-31 renal): > 100 µM; TGI (UO-31 renal): > 100 µM; GI50 (HCC-2998 colon): > 100 µM; TGI (HCC-2998 colon): > 100 µM; GI50 (DU-145 prostate): > 100 µM; TGI (DU-145 prostate): > 100 µM; GI50 (SW-620 colon): > 100 µM; TGI (SW-620 colon): > 100 µM; GI50 (TK-10 renal): > 100 µM; TGI (TK-10 renal): > 100 µM; GI50 (MDA-MB-435): > 100 µM; TGI (MDA-MB-435): > 100 µM; GI50 (EKVX NSCLC): > 100 µM; TGI (EKVX NSCLC): > 100 µM; GI50 (COLO 205 colon): > 100 µM; TGI (COLO 205 colon): > 100 µM; GI50 (CAKI-1 renal): > 100 µM; TGI (CAKI-1 renal): > 100 µM; GI50 (OVCAR-3 ovarian): > 100 µM; TGI (OVCAR-3 ovarian): > 100 µM; GI50 (NCI/ADR-RES ovarian): > 100 µM; TGI (NCI/ADR-RES ovarian): > 100 µM; GI50 (NCI-H460 lung): > 100 µM; TGI (NCI-H460 lung): > 100 µM; GI50 (SNB-19 CNS): > 100 µM; TGI (SNB-19 CNS): > 100 µM; GI50 (U251 CNS): > 100 µM; TGI (U251 CNS): > 100 µM; GI50 (HL-60(TB) leukemia): > 100 µM; TGI (HL-60(TB) leukemia): > 100 µM; GI50 (MOLT-4 leukemia): > 100 µM; TGI (MOLT-4 leukemia): > 100 µM; GI50 (OVCAR-5 ovarian): > 100 µM; TGI (OVCAR-5 ovarian): > 100 µM; GI50 (KM12 colon): > 100 µM; TGI (KM12 colon): > 100 µM; GI50 (HT29 colon): > 100 µM; TGI (HT29 colon): > 100 µM; GI50 (UACC-62 melanoma): > 100 µM; TGI (UACC-62 melanoma): > 100 µM; GI50 (RXF 393 renal): > 100 µM; TGI (RXF 393 renal): > 100 µM; GI50 (MDA-MB-231 breast): > 100 µM; TGI (MDA-MB-231 breast): > 100 µM; GI50 (SF-295 CNS): > 100 µM; TGI (SF-295 CNS): > 100 µM; GI50 (SNB-75 CNS): > 100 µM; TGI (SNB-75 CNS): > 100 µM

Reference: PubChem BioAssay (NCI)
